One data set has as its target T1, p38 MAP kinase (Homo sapiens, UniProt Q16539).
T1 construct: made in house; host or cells: E. coli (co-expressed with SEK-1 and MEKK to obtain the phosphorylated form)
Kind of data set: in vitro inhibition of p-38 (MAP) kinase: transfer of γ-phosphate from γ-33P-ATP to Myelin Basic Protein. The format is biochemical. The conditions noted are these: phosphorylated recombinant p38 MAP kinase, MBP substrate, 30° C., read-out: IC50 (p-38 inhibitory activity, concentration causing 50% inhibition of the p-38 enzyme). The protocol:
This example illustrate an assay protocol for determining in vitro inhibition of p-38 (MAP) Kinase.
The p-38 MAP kinase inhibitory activity of compounds of this invention in vitro was determined by measuring the transfer of the γ-phosphate from γ-^33P-ATP by p-38 kinase to Myelin Basic Protein (MBP), using the a minor modification of the method described in Ahn, N. G.; et al. J. Biol. Chem. Vol. 266(7), 4220-4227, (1991).
The phosphorylated form of the recombinant p38 MAP kinase was expressed with SEK-1 and MEKK in E. Coli and then purified by affinity chromatography using a Nickel column.
The phosphorylated p38 MAP kinase was diluted in kinase buffer (20 mM 3-(N-morpholino)propanesulfonic acid, pH 7.2, 25 mM β-glycerol phosphate, 5 mM ethylene glycol-bis(beta-aminoethyl ether)-N,N,N′,N′-tetraacetic acid, 1 mM sodium vanadate, 1 mM dithiothreitol, 40 mM magnesium chloride). Test compound dissolved in DMSO or only DMSO (control) was added and the samples were incubated for 10 min at 30° C. The kinase reaction was initiated by the addition of a substrate cocktail containing MBP and γ-^33P-ATP. After incubating for an additional 20 min at 30° C., the reaction was terminated by adding 0.75% phosphoric acid. The phosphorylated MBP was then separated from the residual γ-^33P-ATP using a phosphocellulose membrane (Millipore, Bedford, Mass.) and quantitated using a scintillation counter (Packard, Meriden, Conn.).
Compounds of the invention were active in this assay. The p-38 inhibitory activities (expressed as IC50 , the concentration causing 50% inhibition of the p-38 enzyme being assayed) of some compounds of the invention are: […]

Consider 20 compounds from patent US6518276B2, “7-oxo-pyridopyrimidines (II)” (Syntex (U.S.A.) LLC, priority 2000, dated 2003).

The term melting point denotes the temperature, or range, at which the solid turns liquid.

Where a name gives a salt, the structure may show the parent alone.

T1 sequence (Q16539 whole entry): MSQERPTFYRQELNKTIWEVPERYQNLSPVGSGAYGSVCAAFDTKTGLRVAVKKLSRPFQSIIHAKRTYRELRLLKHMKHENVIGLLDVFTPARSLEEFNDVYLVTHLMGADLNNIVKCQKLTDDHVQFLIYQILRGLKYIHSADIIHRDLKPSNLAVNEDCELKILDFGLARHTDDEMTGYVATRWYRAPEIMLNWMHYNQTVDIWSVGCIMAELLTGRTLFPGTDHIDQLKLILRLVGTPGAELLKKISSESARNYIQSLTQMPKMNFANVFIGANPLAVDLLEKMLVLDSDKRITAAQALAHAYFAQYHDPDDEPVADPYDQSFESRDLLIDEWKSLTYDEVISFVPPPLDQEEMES

The compound `COC(=O)CN1CCC(CNc2ncc3cc(-c4ccccc4Cl)c(=O)[nH]c3n2)CC1.Cl` had a melting point of 220 to 221.1 °C.

Turning to `C[C@H](Nc1ncc2cc(-c3ccccc3Cl)c(=O)n(N)c2n1)C(C)(O)O.Cl`, the melting point was greater than 300 °C.

Regarding `CC(Nc1ncc2cc(-c3ccccc3Cl)c(=O)n(C)c2n1)C(C)S(C)(=O)=O.Cl` (stereo not shown), the melting point lay in the range of 142.1 to 144.3 °C.

Compound `COCCC(C)Nc1ncc2cc(-c3ccccc3Cl)c(=O)n(C)c2n1.Cl` (stereo not shown) showed a melting point of 156.4 to 160.2 °C.

Regarding `CN1CCC(CNc2ncc3cc(-c4ccccc4Cl)c(=O)[nH]c3n2)CC1.Cl`, the melting point fell in the range of 213 to 220 °C.

`C[C@H](Nc1ncc2cc(-c3ccccc3Cl)c(=O)n(C)c2n1)C(C)(C)O.Cl` came in with a melting point of 194 to 195.3 °C.

With `Cn1c(=O)c(-c2ccccc2Cl)cc2cnc(NC(C)(C)CO)nc21` (as salt: HCl) [Cpd 1], the melting point was 228.6 to 228.9 °C.

On to `C[C@H](Nc1ncc2cc(-c3ccccc3Cl)c(=O)n(-c3ccc(F)cc3)c2n1)C(C)(C)O` (as salt: HCl) [Cpd 7], for which the melting point was in the range of 142 to 149 °C.

`C[C@H](Nc1ncc2cc(-c3ccccc3Cl)c(=O)n(C)c2n1)C(C)(C)O` (as salt: HCl) [Cpd 8] displayed a melting point of 178 to 181.5 °C.

Take `Cn1c(=O)c(-c2ccccc2Cl)cc2cnc(NC(C)(C)CO)nc21` [Cpd 1]: on p38 MAP kinase, the IC50 came out at 0.052 µM.

The compound `Cl.O=C(O)CN1CCC(CNc2ncc3cc(-c4ccccc4Cl)c(=O)[nH]c3n2)CC1` [Cpd 3] yielded a melting point of 235.3 to 237.9 °C. In addition, the IC50 at p38 MAP kinase is 2.2 µM.

The compound `CN(C)C(=O)CN1CCC(CNc2ncc3cc(-c4ccccc4Cl)c(=O)[nH]c3n2)CC1.Cl` [Cpd 4] gave a melting point of 211.8 to 212.8 °C. In addition, the IC50 on p38 MAP kinase amounted to 6.27 µM.

For `C[C@@H](Nc1ncc2cc(-c3ccccc3Cl)c(=O)n(-c3ccc(F)cc3)c2n1)C(C)(C)O` [Cpd 6], the melting point lay in the range of 206.8 to 207.5 °C.

On to `C[C@H](Nc1ncc2cc(-c3ccccc3Cl)c(=O)n(-c3ccc(F)cc3)c2n1)C(C)(C)O` [Cpd 7], for which, on p38 MAP kinase, the IC50 was 0.0003 µM.

In the case of `C[C@H](Nc1ncc2cc(-c3ccccc3Cl)c(=O)n(C)c2n1)C(C)(C)O` [Cpd 8], on p38 MAP kinase, the IC50 stood at 0.031 µM.

As to `Cl.Cn1c(=O)c(-c2ccccc2Cl)cc2cnc(NC3CCC3)nc21` [Cpd 10], the melting point was in the range of 205.3 to 210.9 °C. Besides, the IC50 at p38 MAP kinase was found to be 0.042 µM.

As for `Nn1c(=O)c(-c2ccccc2Cl)cc2cnc(NC3CCCC3)nc21` [Cpd 11], the melting point fell in the range of 147 to 154 °C. In addition, at p38 MAP kinase, the IC50 turned out to be 0.024 µM.

Consider `C[C@H](Nc1ncc2cc(-c3ccccc3Cl)c(=O)n(C3CC3)c2n1)C(C)(C)O` [Cpd 12], for which the IC50 on p38 MAP kinase came out at 0.124 µM.

`CC(C)(CO)Nc1ncc2cc(-c3ccccc3Cl)c(=O)n(N)c2n1` [Cpd 13]: at p38 MAP kinase, the IC50 is 0.048 µM.

Compound `Cn1c(=O)c(-c2ccccc2Cl)cc2cnc(N[C@H](CO)C(C)(C)C)nc21` [Cpd 18] showed a melting point of 171.2 to 174 °C. On p38 MAP kinase, the IC50 turned out to be 0.092 µM.
